Reference: ChEMBL document CHEMBL1132706 (J Med Chem, 1999)

Key:
[1] = target: T1, Human immunodeficiency virus type 1 integrase (Human immunodeficiency virus 1, UniProt Q7ZJM1)
Description: Inhibition of HIV-1 integrase by radiolabeled oligonucleotide-based assay integration

CEM-SS [2] = assay: Compound was evaluated for the cytoprotection of CEM-SS cells by XTT cytoprotection assay through the NCI AIDS Screen (EC50); type: functional, cell-based; conditions: Homo sapiens
CEM-SS [3] = assay: Compound was evaluated for the cytoprotection of CEM-SS cells by XTT cytoprotection assay through the NCI AIDS Screen (IC50); type: functional, cell-based; conditions: Homo sapiens
[4] = target: T1, Human immunodeficiency virus type 1 integrase; remark: listed apart in the source
Description: Compound was evaluated for the inhibitory concentration against HIV-1 integrase by radiolabeled oligonucleotide-based assay 3''-processing

[5] = Compound was evaluated for the relative inhibition of Viral infection in MAGI cells at concentration 10mM, using assay 2; type: functional, Homo sapiens
[6] = Compound was evaluated for the relative inhibition of Viral infection in MAGI cells at concentration 10 mM, using assay 1; type: functional, Homo sapiens
[7] = Compound was evaluated for the relative inhibition of Viral infection in MAGI cells at concentration 1 mM, using assay 1; type: functional, Homo sapiens
MT4 [8] = assay: Concentration of compound required to reduce MT-4 cell viability by 50%; type: functional, cell-based; conditions: Homo sapiens
CEM-SS [9] = assay: Compound was evaluated for the cytoprotection of CEM-SS cells by XTT cytoprotection assay through the NCI AIDS Screen; type: functional, cell-based; conditions: Homo sapiens
CEM-SS [10] = assay: Compound was evaluated for the cytoprotection by XTT cytoprotection assay through the NCI AIDS Screen; type: functional, cell-based; conditions: Homo sapiens
MT4 [11] = assay: Concentration of compound required to protect 50% of MT-4 cells against retroviral cytopathic effects by HIV-2 (ROD); type: functional, cell-based; conditions: Homo sapiens
[12] = Compound was evaluated for the relative inhibition of Viral infection in MAGI cells at concentration 100 mM, using assay 1; type: functional, Homo sapiens
[13] = Compound was evaluated for the relative Viral infection in MAGI cells at concentration 100 mM, using assay 2
MT4 [14] = assay: Concentration of compound required to protect 50% of MT-4 cells against retroviral cytopathic effects by HIV-1 ([…]); type: functional, cell-based; conditions: Homo sapiens
[15] = Compound was evaluated for the relative inhibition of Viral infection in MAGI cells at concentration 0.1 mM, using assay 3; type: functional, Homo sapiens
[16] = Compound was evaluated for the relative inhibition of Viral infection in MAGI cells at concentration 10 mM, using assay 3; type: functional, Homo sapiens
CEM-SS [17] = assay: Compound was evaluated for the effect of Order of Addition on Cytoprotection against HIV-1RF at dilution 333, Pretreat only (100 uM); type: functional, Homo sapiens
CEM-SS [18] = assay: Compound was evaluated for the effect of Order of Addition on Cytoprotection against HIV-1RF at dilution 1000, Pretreat only (100 uM); type: functional, Homo sapiens
CEM-SS [19] = assay: Compound was evaluated for the effect of Order of Addition on Cytoprotection against HIV-1RF at dilution 100, Pretreat only (100 uM); type: functional, Homo sapiens

T1 sequence (Q7ZJM1 whole entry): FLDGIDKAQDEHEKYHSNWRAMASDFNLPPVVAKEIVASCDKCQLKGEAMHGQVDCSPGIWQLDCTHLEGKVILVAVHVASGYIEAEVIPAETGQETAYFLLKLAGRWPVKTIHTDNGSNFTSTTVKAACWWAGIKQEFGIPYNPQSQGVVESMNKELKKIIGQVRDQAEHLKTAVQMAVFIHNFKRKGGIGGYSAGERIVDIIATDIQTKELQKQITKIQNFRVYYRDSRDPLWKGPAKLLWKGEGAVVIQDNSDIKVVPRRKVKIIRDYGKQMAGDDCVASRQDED

SMILES | IC50 [1] [µM] | EC50 (CEM-SS [2]) [µM] | IC50 (CEM-SS [3]) [µM] | IC50 [4] [µM] | relative infection [5] [%] | relative infection [6] [%] | relative infection [7] [%] | IC50 (MT4 [8]) [µM] | IC50 (CEM-SS [9]) [µM] | EC50 (CEM-SS [10]) [µM] | EC50 (MT4 [11]) [µM] | relative infection [12] [%] | relative infection [13] [%] | EC50 (MT4 [14]) [µM] | relative infection [15] [%] | relative infection [16] [%] | Control (CEM-SS [17]) [%] | Control (CEM-SS [18]) [%] | Control (CEM-SS [19]) [%]
CC(=O)Oc1ccc(/C=C/C(=O)NCCOC(=O)/C=C/c2ccc(OC(C)=O)c(OC(C)=O)c2)cc1OC(C)=O | 100 | > 15.6 | 15.6 | > 333 |  |  |  |  |  |  |  |  |  |  |  |  |  |  | 
CC(=O)Oc1ccc(/C=C/C(=O)O[C@@H](C(=O)O)[C@@H](OC(=O)/C=C/c2ccc(OC(C)=O)c(OC(C)=O)c2)C(=O)O)cc1OC(C)=O | 6.2 |  |  | 9.8 | 50 | 73 | 48 | 47.1 | 50 | 16 | 10.1 | 4 | 2 | 4.1 | 85 | 42 |  |  | 
NS(=O)(=O)c1ccc(NC(=O)c2ccccc2SSc2ccccc2C(=O)Nc2ccc(S(N)(=O)=O)cc2)cc1 |  |  |  |  |  |  |  |  |  |  |  |  |  |  |  |  | 4 | 6 | 31
